# Laboratory results: patent US6458840B2, “Use of valproic acid analog for the treatment and prevention of migraine and affective illness” (American Biogenetic Sciences, Inc., priority 1998, dated 2002)
# Several values for one entry are separate records, joined by “and”; a condition that tells them apart may be missing. Equal values may be shown once.
# How the values were obtained:
# [1] = tested on: amygdala-kindled seizures; assay: Amygdala-kindling in fully kindled rats (anti-seizure effects); format: in vivo, rat; conditions: for afterdisch.dur.1 (ADD1) / afterdisch.dur.2 (ADD2) / afterdisch.thresh. (ADT) / seizure duration1 (SD1) / seizure duration2 (SD2) / seizure severity (SS): 15 min pretreatment, mean (X); for seizure severity (SS): Racine score; for increase of afterdischarge threshold: versus pre-drug control
# Experimental: For implantation of stimulation and recording electrodes, rats were anesthetized with chloral hydrate (360 mg/kg i.p.) and received stereotaxic implantation (according to the surgery methods described in the atlas of Paxinos and Watson [1986]) of one bipolar electrode in the right basolateral amygdala. Coordinates for electrode implantation were AP-2.2 mm, L-4.8 mm, V-8.5 mm. All coordinates were measured from bregma. Skull screws served as the indifferent reference electrode. The electrode assembly was attached to the skull by dental acrylic cement. After a postoperative period of 2 weeks, constant current stimulations (500 μA, 1 ms, monophasic square-wave pulses, 50/s for 1 s) were delivered to the amygdala at intervals of 1/day until ten stage 5 seizures were elicited. The electrical susceptibility of the stimulated region (threshold for induction of afterdischarges) was recorded on the first day of the experiment (initial afterdischarge threshold) as well as after kindling acquisition (with an interval of at least 4 days after the tenth stage 5 seizure) using an ascending staircase procedure. The initial current intensity was 1 OμA, and the current intensity was increased in steps of about 20% of the previous current at intervals of 1 min until an afterdischarge of at least 3 s duration was elicited. […] In addition to afterdischarge threshold, the following parameters of kindled seizures were measured in fully-kindled rats after stimulation with the afterdischarge threshold current: seizure severity was classified according to Racine (1972): 1 -immobility, eye closure, twitching of vibrissae, sniffing, facial clonus; 2-head nodding associated with more severe facial clonus; 3-clonus of one forelimb; 4-rearing, often accompanied by bilateral forelimb clonus; 5-rearing with loss of balance and falling accompanied by generalized clonic seizures. Seizure duration 1 (SD 1) was the duration of limbic (stage 1-2) and/or motor seizures (stage 3-5). Seizure duration 2 (SD 2) included the time of limbic and/or motor seizures plus the adjacent time of immobility. Afterdischarge duration 1 (ADD 1) was the time of spikes in the EEG recorded from the site of stimulation with a frequency of at least 1 /s. Afterdischarge duration 2 (ADD 2) was the total time of spikes occurring in the EEG including those, which followed the ADD 1 with lower frequency and amplitude.
# The anti-seizure effects of 2-propyl-4-hexynoic acid and valproate in fully kindled rats were determined in a group of 8-9 rats (no. 784, 785, 787, 788, 789, 790 [had to be taken out of the trial, because of loss of electrodes], 791, 792, 793) with reproducible stage 5 seizures.
# Drugs were injected 15 min prior to stimulation intraperitoneally. Control experiments were always performed 2-3 days before each drug experiment. For control determinations, rats received i.p. injections of vehicle (saline) with the pretreatment time of the respective drug experiment. For all drug experiments, at least 4 days were interposed between 2 drug injections in order to avoid alterations in drug potency due to cumulation or tolerance.
# The significance of differences between pre-drug control recordings and recordings after drug injection was calculated by the Wilcoxon signed rank test for paired replicates (SigmaStat for Windows, version 1.0).
# [2] = Rotarod test (neurological deficit) in kindled rats; format: in vivo, rat
# Experimental: (§1) Tests included open field observations, rotarod test and body temperature. Tests were always performed in the same manner in control and drug experiments at two different times, just before application of drug or vehicle and 13 minutes after application.
# The rotarod test was carried out with a rod of 6 cm diameter and rotation speed of 8 r.p.m. Neurological deficit was indicated by inability of the animals to maintain their equilibrium for at least 1 min on the rotating rod. Rats had to be trained prior to drug experiments to maintain their balance on the rod. After drug or vehicle treatment, rats which were not able to maintain their equilibrium on the rod for 1 minute were put again on the rod twice.
# [3] = Open field observation, behavioral rating of adverse effects; format: in vivo, rat
# Experimental: as §1
# In addition to these quantitative estimations of neurological deficit, behavioral alterations observed after administration of 2-propyl-4-hexynoic acid and valproate noted in the cage and by placing the animals in an open field of 90-100 cm diameter. Muscle tone was estimated by palpation of the abdomen. The extent of deficits in behavior after administration of the compounds was determined by a rating system (Loscher et al. 1987). In short, animals were taken out of the cage, placed in an open field, observed for about 1 minute and rated separately for ataxia, abducted hindlimbs, reduced righting, flat body posture, circling, Straub tail, piloerection, hypolocomotion and hyperlocomotion (abdominal muscle tone was evaluated by palpation at the end of the period of observation). All other parameters except ataxia were scored from 0 to 3: 0-absent; 1-equivocal; 2-present; 3- intense. For ataxia (06): 1 -slight ataxia in hind-legs (tottering of the hind quarters); 2-more pronounced ataxia with dragging of hind legs; 3-further increase of ataxia and more pronounced dragging of hind legs; 4-marked ataxia, animals lose balance during forward locomotion; 5- very marked ataxia with frequent loss of balance during forward locomotion; 6-permanent loss of righting reflexes, but animal still attempts to move forward. Rectal body temperature was measured by an electronic thermometer. Body weight of the animals was recorded once daily before drug injection. Significance of differences in behavior between pre-drug and post-drug data determined in the same group of animals was calculated by the Wilcoxon signed rank test for paired replicates and for body temperature by Student's paired t-test (SigmaStat for Windows, version 1.0). Differences in body temperature were always compared only within the experimental day with the pre-drug time as control to one post-drug time.
# [4] = Drug solubility test; format: physicochemical; conditions: read-out: concentration in drug solubility test
# [5] = doses 50, 75, 100, 200 mg/kg i.p.
# [6] = 200 mg/kg i.p., 13′ after application, mean (X)
smiles,measurement,setting,value
"CC#CCC(CCC)C(=O)O (stereo not shown) [2-propyl-4-hexynoic acid, 2-n-propyl-4-hexynoic acid]","effects against amygdala-kindled seizures, in words",[1]; 50 mg/kg i.p.,no significant effects
same,afterdisch.dur.1 (ADD1),[1]; 50 mg/kg i.p.,93.11 s
same,afterdisch.dur.2 (ADD2),[1]; 50 mg/kg i.p.,93.11 s
same,afterdisch.thresh. (ADT),[1]; 50 mg/kg i.p.,37.33 μA
same,seizure duration1 (SD1),[1]; 50 mg/kg i.p.,78.44 s
same,seizure duration2 (SD2),[1]; 50 mg/kg i.p.,234.33 s
same,seizure severity (SS),[1]; 50 mg/kg i.p.,4.89 score
same,afterdisch.dur.1 (ADD1),[1]; 75 mg/kg i.p.,16.25 s
same,afterdisch.dur.2 (ADD2),[1]; 75 mg/kg i.p.,16 s and 16.25 s
same,afterdisch.thresh. (ADT),[1]; 75 mg/kg i.p.,88.50 μA
same,seizure duration1 (SD1),[1]; 75 mg/kg i.p.,16 s and 16.25 s
same,seizure duration2 (SD2),[1]; 75 mg/kg i.p.,16.25 s
same,seizure severity (SS),[1]; 75 mg/kg i.p.,2.3 score and 2.25 score
same,increase of afterdischarge threshold,[1]; 75 mg/kg i.p.,109%
same,seizure duration1 (SD1),[1]; 100 mg/kg i.p.,47 s
same,seizure severity (SS),[1]; 100 mg/kg i.p.,3.6 score
same,increase of afterdischarge threshold,[1]; 100 mg/kg i.p.,160%
same,afterdisch.dur.2 (ADD2),[1]; 200 mg/kg i.p.,24 s
same,seizure duration1 (SD1),[1]; 200 mg/kg i.p.,19 s
same,seizure severity (SS),[1]; 200 mg/kg i.p.,1.8 score
same,increase of afterdischarge threshold,[1]; 200 mg/kg i.p.,209%
same,afterdisch.thresh. (ADT; μA),"[1]; 200 mg/kg, mean (X) of 8 kindled rats, control mean 57.88",178.75 μA
same,seizure severity (SS; score),"[1]; 200 mg/kg, mean of 8 rats, control mean 4.63",1.75 score
same,seizure duration1 (SD1; sec),"[1]; 200 mg/kg, mean of 8 rats, control mean 61.63",19.25 s
same,afterdisch.dur.1 (ADD1;sec),"[1]; 200 mg/kg, mean of 8 rats, control mean 77.25",23.50 s
same,afterdisch.dur.2 (ADD2; sec),"[1]; 200 mg/kg, mean of 8 rats, control mean 88.13",23.50 s
same,seizure duration2 (SD2; sec),"[1]; 200 mg/kg, mean of 8 rats, control mean 197.88",36.38 s
same,"rotarod-test, day of exper.","[2]; 50 mg/kg i.p., 13′ after application",0%
same,"rotarod-test, day of exper.","[2]; 75 mg/kg i.p., 13′ after application",0%
same,"rotarod-test, day of exper.","[2]; 200 mg/kg, 13′, all 8 animals +",0%
same,"rotarod-test, in words",[2]; [5],performed successfully by all individuals
same,antaxia (1-6),[3]; [6],1.5 score
same,hypolocomotion (1-3),[3]; [6],1.4 score
same,muscle relaxation (1-3),[3]; [6],1.4 score
same,BEHAVIOR (score) antaxia (1-6),"[3]; 200 mg/kg, 13′, mean of 8 rats",1.50 score
same,BEHAVIOR (score) hypolocomotion (1-3),"[3]; 200 mg/kg, 13′, mean of 8 rats",1.38 score
same,BEHAVIOR (score) muscle relaxation (1-3),"[3]; 200 mg/kg, 13′, mean of 8 rats",1.38 score
same,BEHAVIOR (score) red. righting (1-3),"[3]; 200 mg/kg, 13′, mean of 8 rats",0.75 score
same,"adverse effects, in words",[3]; [5],only observed at the highest dose of 200 mg/kg and were milder than with valproate
same,solubility,[4],18.5 mg/mL
